Test results as given in patent publication US11382883B2, “Intermediate metabolism products to potentiate aminoglycoside antibiotics in bacterial infections” (TRUSTEES OF BOSTON UNIVERSITY, priority 2013, dated 2022).
“Also recorded” adds a separate entry of the source.

Experiments:
[1] = tested on: P. aeruginosa persisters; assay: Persister cell eradication: carbon sources plus tobramycin, survival by c.f.u. counting; assay type: cell-based, Pseudomonas aeruginosa; conditions: for potentiation of tobramycin killing of persisters by carbon source (efficiency of tested metabolites): tobramycin 40 mg/l, carbon sources normalized to 60 mM carbon, M9 minimal media, ciprofloxacin-selected persisters; for potentiation of antibiotic efficacy / sensitization to aminoglycoside antibiotics: P. aeruginosa cells in various reduced metabolic states, in conjunction with aminoglycosides
[2] = tested on: P. aeruginosa stationary phase cells; assay: Stationary phase cells eradication: carbon sources plus tobramycin, survival by c.f.u. counting; assay type: cell-based, Pseudomonas aeruginosa
Description: Cells from frozen stock were plated overnight at 37° C., following which a single colony forming unit (CFU) was grown in Luria-Bertani (LB) broth at 300 r.p.m. and 80% humidity to an optical density at 600 nm (OD600) of 0.3. Cells were then diluted 1:1,000 in 25 ml LB and grown for 16 h at 37° C., 300 r.p.m. and 80% humidity in 250 ml flasks. Cells were then washed (Spin 5000 rpm (Thermofisher centrifuge) for 15 mins. Samples were then washed with 20 ml of 1× filtered PBS (again spin 5000 rpm for 15 mins) and re-suspended in M9 minimal media. Carbon sources and antibiotics (tobramycin 40 mg/l) were added and samples were incubated at 37° C., 300 r.p.m. and 80% humidity At specified time points, 10-μl aliquots of cells were removed and washed with PBS, serially diluted and spot-plated onto LB agar plates to determine colony-forming units per ml (c.f.u. ml−1). The concentration of carbon sources were normalized to deliver 60 mM carbon (for example 10 mM glucose, 15 mM fumarate, 20 mM pyruvate etc.). Survivors were enumerated by plating 10 ul aliquots with serial dilutions taken from 1 ml spun down and PBS washed (remaining AB). […] Survival was determined by dividing the c.f.u. ml−1 of a sample at each time point by the initial c.f.u. ml−1 for that sample.

[3] = i.v. administration; cited from earlier work

Q: With O=C(CO)[C@@H](O)[C@H](O)[C@H](O)CO [Fructose, fructose] as the compound, how does the “potentiation of tobramycin killing of persisters by carbon source (efficiency of tested metabolites)” value [1] read?
A: Its value is “not efficient”.

Q: For OC[C@@H](O)[C@@H](O)[C@H](O)[C@H](O)CO [Mannitol, mannitol], which “potentiation of tobramycin killing of persisters by carbon source (efficiency of tested metabolites)” value [1] is on record?
A: The value was “not efficient”.

Q: Which “potentiation of antibiotic efficacy / sensitization to aminoglycoside antibiotics” value [1] does the source give for O=C(O)/C=C/C(=O)O [fumarate] here?
A: Its value is “very strong results”.

Q: What about the “potentiation of tobramycin killing of persisters by carbon source (efficiency of tested metabolites)” value [1] of the same compound?
A: The value was “most potent”.

Q: What about the “killing with incremental doses of fumarate for a given dose of tobramycin” value ([2]; FIG. 2, tobramycin 40 mg/L) of the same compound?
A: Its value is “increased killing”.

Q: What about the “killing of P. aeruginosa in stationary phase by tobramycin” value ([2]; FIGS. 2A-2B) of the same compound?
A: Its value is “enables killing”.

Q: With O=C(O)[C@H](O)[C@@H](O)[C@H](O)[C@H](O)CO [gluconate] as the compound, how does the “potentiation of tobramycin killing of persisters by carbon source (efficiency of tested metabolites)” value [1] read?
A: Its value is “variable levels of efficiency”.

Q: With CCC(=O)O [propionate] as the compound, how does the “potentiation of antibiotic efficacy / sensitization to aminoglycoside antibiotics” value [1] read?
A: Its value is “sensitize the bacterium to aminoglycoside antibiotics”.

Q: And the “potentiation of tobramycin killing of persisters by carbon source (efficiency of tested metabolites)” value [1]?
A: Its value is “recapitulated this to some effect”.

Q: For O=C(O)CCC(=O)O [succinate], which “potentiation of antibiotic efficacy / sensitization to aminoglycoside antibiotics” value [1] is on record?
A: The value was “very strong results”.

Q: What about the “potentiation of tobramycin killing of persisters by carbon source (efficiency of tested metabolites)” value [1] of the same compound?
A: The value was “most potent”.

Q: Which results are given for NC[C@H]1O[C@H](O[C@H]2[C@H](O)[C@@H](O[C@H]3O[C@H](CO)[C@@H](O)[C@H](N)[C@H]3O)[C@H](N)C[C@@H]2N)[C@H](N)C[C@@H]1O [tobramycin, reference compound]?
A: killing with incremental doses of tobramycin for a given fumarate ([2]; FIG. 2, administered with fumarate): increased killing; also recorded: higher killing; typical peak serum concentration [3]: 40 mg/L
